The text below walks through data of article PMC6107127, “Characteristics of the mitochondrial and cellular uptake of MPP^+, as probed by the fluorescent mimic, 4'I-MPP^+” (PLoS ONE, 2018).

Molecules are shown by their SMILES.

Series [1] relates to HepG2 cells. Conditions: 5 μM FCCP 30 min, then 50 μM toxin 45 min; in comparison to MN9D cells. Here is the method:
(§1) Cells grown in 12-well plates were washed and incubated with 5 μM FCCP in KRB-HEPES for 30 min followed by 50 μM MPP^+ or 4'I-MPP^+ in the same buffer for 45 min at 37 °C. After the incubations, cells were washed with ice-cold KRB-HEPES and treated with 0.1 M HClO4. The intracellular MPP^+ or 4'I-MPP^+ contents of HClO4 extracts were quantified by HPLC-UV as detailed above. The controls were treated under the same conditions except that FCCP was omitted from the initial incubation. All uptake data were normalized to the respective protein concentration of each sample. To visualize the effect of FCCP on the mitochondrial accumulation of 4'I-MPP^+, cells were grown in glass bottomed plates and incubated with 5 μM FCCP in KRB-HEPES for 30 min followed by 100 μM 4'I-MPP^+ for 1 h at 37 °C. Then cells were washed and reconstituted with 1 mL of KRB-HEPES and the intracellular 4'I-MPP^+ fluorescence (Ex/Em 340/470-550 nm) were recorded.

In series [2] the test system is MN9D cells. Conditions: 5 μM FCCP 30 min, then 50 μM toxin 45 min. Here is the method:
as §1

Series [3] deals with MN9D cells. Put plainly: Intracellular ATP levels. In kind it is cell-based, mouse. Conditions: 100 μM, 6 h at 37 °C. Here is the method: (§2) Cells grown in 12-well plates were treated with 100 μM MPP^+ or 4'I-MPP^+ in KRB-HEPES for 6 h at 37 °C. After the treatments, cells were suspended in 1 mL of ice-cold KRB-HEPES and 50 μL samples were withdrawn for protein quantification. The remaining cell suspensions were centrifuged for 3 min at 3,500 x g at 4 °C and the cell pellets were treated with 1 mL of lysis buffer (0.1 M Tris, 1% Triton X-100, pH 7.5) for 2 min and centrifuged at 3,500 x g for 3 min to remove the cell debris. The ATP contents of the supernatants were measured using a fluorometric ATP assay kit (BioVision, Milpitas CA, USA) following the manufacture’s guidelines. All ATP levels were normalized to the protein content of each sample.

The test system of series [4] is HepG2 cells. The series is described as follows: Intracellular ATP levels. In kind it is cell-based, human. Conditions: 100 μM, 6 h at 37 °C. Here is the method:
as §2

Series [5] concerns HepG2 cells. The series is described as follows: MTT cell viability assay. In kind it is cell-based, human. Conditions: MPP+ at 0–1000 μM, 4'I-MPP+ at 0–200 μM; 16 h. Here is the method:
(§3) Cell viability was determined by the MTT [3-(4,5-dimethylthiazol-2-yl)-2,5-diphenyltetrazolium bromide)] assay. Briefly, cells were seeded on 96-well plates and allowed to grow to about 70–80% confluence. Prior to the experiment, culture media was replaced with KRB-HCO3^- containing desired concentrations of MPP^+ or 4'I-MPP^+ and incubated for 16 h at 37 °C. After the incubation, 10 μL of 5 mg/mL MTT solution was added to each well and incubated for 2 h at 37 °C. The resulting formazan was solubilized by the addition of 210 μL detergent solution [50% DMF/H2O (v/v), 20% SDS (w/v)] followed by incubation at 37 °C for 12 h. The cell viabilities were determined by quantifying solubilized formazan by measuring the difference in the absorbance at 570 nm and 650 nm. Results were expressed as % viability of MPP^+ or 4'I-MPP^+ treated cells with respect to control cells, which were treated under the same conditions except in the absence of the MPP^+ or 4'I-MPP^+.

Series [6] has as its system MN9D cells. Put plainly: Cellular uptake of MPP+ and 4'I-MPP+ (HPLC-UV / fluorescence). Conditions: 100 μM toxin, 60 min, 37 °C, KRB-HEPES. The format is cell-based, mouse. Here is the method: (§4) Cells were seeded into 12-well plates at 0.25 x 10^6 cells/well and grown 2–3 days to about 70–80% confluency. The media was removed and a solution containing 100 μM MPP^+ or 4'I-MPP^+ in warm KRB-HEPES (or without Ca^2+ and with 1.4 mM EGTA) was added to each well and incubated at 37 °C for the desired period of time (see Figure legends for further details). After the incubations, the media were removed and cells were washed with ice-cold KRB-HEPES. Washed cells were suspended in 1.0 mL of ice-cold KRB-HEPES and 50 μL aliquots were withdrawn for protein determination. The remaining cell suspensions were centrifuged at 5000 x g at 4 °C for 5 min and the cell pellets were treated with 75 μL of 0.1 M HClO4. The coagulated proteins were pelleted by centrifugation at 13,200 x g at 4 °C for 8 min and the MPP^+ or 4'I-MPP^+ contents of the supernatants were determined by C18-reversed-phase HPLC-UV (HPLC-UV) as previously described using standard curves constructed from authentic standards. The standard curves for HPLC-UV quantifications were constructed using authentic samples of MPP^+ and 4'I-MPP^+ under the same HPLC-UV separation conditions (S1 Fig).
(§5) To quantify 4'I-MPP^+ uptake by fluorescence, MN9D or HepG2 cells grown in glass bottomed plates, washed, and reconstituted with KRB-HEPES (1.0 mL), pH 7.4, and mounted on the stage of a Nikon ECLIPSE Ti-S inverted fluorescence microscope. […]

For a further series, the system named is MN9D or HepG2 cells. The series is described as follows: Mitochondrial membrane potential depolarization (TMRM). The format is cell-based. The note with it: 500 μM, in about 45 min. Here is the method:
MN9D or HepG2 cells grown in glass-bottomed plates were treated with 50 nM TMRM (AnaSpec, Fremont CA, USA) in KRB-HEPES for 45 min in the dark. After mounting on the stage of a Nikon ECLIPSE Ti-S inverted fluorescence microscope, 15–20 ROIs with uniform fluorescence were selected and TMRM fluorescence at Ex/Em at 543/573 nm was recorded at 5 sec time intervals for 3 min. Then, MPP^+ or 4'I-MPP^+ was added to a final concentration of 500 or 100 μM, respectively and TMRM fluorescence measurements were continued for an additional 40 min for MPP^+ and 15 min for 4'I-MPP^+ at 15 sec time intervals. The background fluorescence was subtracted from the ROI fluorescence and averages of corrected data were used to estimate the magnitude of the mitochondrial membrane potential.

Series [7] is described as follows: Relative HPLC elution times and hydrophobicities. The format is physicochemical.
Series [8] has as its system HepG2 cells. The series is described as follows: Cellular uptake of MPP+ and 4'I-MPP+ (HPLC-UV / fluorescence). In kind it is cell-based, human. The note with it: 100 μM toxin, 60 min. Here is the method:
as §4, §5

The subject of series [9] is MN9D cells. The series is described as follows: Chromatin condensation test for apoptosis (DAPI). The note with it: 250 μM, 12 h. The format is cell-based, mouse. Here is the method: MN9D cells grown in glass-bottomed plates were treated with 250 μM MPP^+ or 4'I- MPP^+ for 12 h and then with 300 nM DAPI in KRB-HEPES for 15 min in the dark at 37 °C [24]. Then cells were rinsed and PBS was added to cover the cell layer. Increase in nuclear DAPI fluorescence (Ex/Em at 358/461 nm) due to chromatin condensation was observed using a Nikon ECLIPSE Ti-S inverted fluorescence microscope. The controls were treated similarly except that MPP^+ or 4'I-MPP^+ was omitted from the initial incubation medium.

Series [10] deals with MN9D cells. The series is described as follows: MTT cell viability assay. In kind it is cell-based. The note with it: Mus musculus, 16 h incubation. Here is the method: as §3
(In general: Tetrazolium assays rely on reduction of a dye to a coloured formazan, in cell work by metabolically active cells.)

The subject of series [11] is rat brain mitochondrial complex-I (NADH: ubiquinone oxidoreductase). Put plainly: Ubiquinone dependent NADH oxidation (complex-I inhibition). The note with it: 200 μM. The format is biochemical. Here is the method: Isolated rat brain mitochondria were lysed by freeze-thawing in hypotonic media containing 25 mM K3PO4 and 5 mM MgCl2, pH 7.2 [22]. The complex-I (i.e. NADH: ubiquinone oxidoreductase) activity of mitochondrial membrane fragments were determined according to the procedure of Birch-Machin and Turnbull. Briefly, mitochondrial membranes (50 μg protein) were incubated with 130 μM NADH (final concentration) and Antimycine A (2 μg/mL) in a 1.0 mL assay solution containing 25 mM K3PO4, 5 mM MgCl2, 2 mM KCN, 2.5 mg/mL bovine serum albumin, pH 7.2, for 2 min at 37 °C with or without rotenone, MPP^+ or 4'I-MPP^+ (for further details see the corresponding figure legends). The complex-I mediated ubiquinone dependent NADH oxidation was initiated by adding ubiquinone-1 to a final concentration of 65 μM and the initial rates of the reactions were monitored by following the decrease in absorbance at 340 nm with respect to 425 nm reference wavelength for 5 min.

The test system of series [12] is MN9D cells. Put plainly: Intracellular ROS (DCFH-DA). The note with it: 100 μM, 1 h at 37 °C. The format is cell-based, mouse. Here is the method:
Cells grown in 12-well plates were incubated with 10 μM DCFH-DA in KRB-HEPES for 1 h. […] After the incubations, cells were washed, harvested, solubilized with 0.1 M Tris buffer (pH 7.5) containing 1% Triton X-100, and cell debris were removed by centrifugation at 13,200 x g for 8 min at 4 °C. The content of ROS-oxidized DCFH product, 2',7'-dichlorofluorescein (DCF) in the supernatants were quantified by fluorescence (Ex/Em 488/524 nm). The data were normalized to the protein contents of individual samples. ROS productions in DCFH-DA (50 μM) loaded 250 μM 4'I-MPP^+ treated (4 h) live MN9D cells were visualized by confocal fluorescence microscopy at Ex/Em 488/524 nm using a Leica TCS SP5II microscope.

For `N#CC(C#N)=NNc1ccc(OC(F)(F)F)cc1` [FCCP, carbonyl cyanide-p-trifluoromethoxyphenylhydrazone], the results for the “effect on cellular accumulation of MPP+ and 4'I-MPP+” value in the series with HepG2 cells [1] and with MN9D cells [2] were “stronger effect” and “significantly decreased”, respectively.

As to `C[n+]1ccc(-c2ccccc2)cc1` [MPP^+, 1-methyl-4-phenylpyridinium], the “effect on intracellular ATP levels” value with MN9D cells [3] and in the series on HepG2 cells [4] was “deplete intracellular ATP levels” each time. Further, the HepG2 cell toxicity entry with HepG2 cells [5] is “resistant”. Further, the “cellular uptake in 1 h” value in the series with MN9D cells [6] is given as 0.6 nmoles/mg of protein. Further, in the series on MN9D or HepG2 cells, the “depolarization of the mitochondrial membrane” value is on record as 20–50%. The “relative elution time (hydrophobicity)” value in series [7] (Buffer:CH3CN 70:30) amounted to 5.92; in series [7] (Buffer:CH3CN:MeOH 60:30:10), 5.28; in series [7] (Buffer:CH3CN:MeOH 65:25:10), 6.02. Also, in the series on HepG2 cells [8], the “cellular uptake in 60 min” value is “about 1.2 nmoles/mg”. For the same compound, in the series with MN9D cells [9], the “apoptotic cell death (chromatin condensation)” value was “cause apoptotic MN9D cell death”. Further, in the series with MN9D cells [10], the IC50 – broadly, the concentration at which inhibition is half-maximal – was about 125 µM. For the same compound, the “inhibition of the complex-I activity” value in series [11] turned out to be 21%. For the same compound, the “effect on ROS production” value in the series with MN9D cells [12] was “increase ROS production”.
